Like-named read-outs stand apart in the source and are kept apart here.
Columns and labels:
HT 29 = experiment: Growth inhibition test (MTT) for cytotoxic properties; type: cell-based, human
Summary of the method: (§1)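 SW 480 and HT 29 cells in RPMI 1640 with 10% FCS were seeded at 50,000 cells/ml, grown 1 day at 37 °C, then exposed to compound added in DMSO. MTT (5 mg/ml stock) was applied after day 3 and day 6 for 5 h, and formazan absorbance was read at 540 nm. IC50 values reported.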

SW 480 = experiment: as above; type: cell-based, human
Summary of the method: as §1

[1] = tested on: bone marrow parent cells of the mouse; experiment: CSF-induced proliferation of bone marrow parent cells, in vitro; type: cell-based; conditions: recombinant murine GM-CSF, 7 days
Experimental: Bone marrow cells are flushed out of the femur of mice. 10^5 cells are incubated in McCoy SA medium (0.3% agar) together with recombinant murine GM-CSF (Genzyme; parent cell colony formation) and the substances (10^-4 to 100 μg/ml) at 37° C. and 7% CO2. 7 days later, the colonies ([…]) and clusters (17-50 cells) are counted.

B 16 F 10 = experiment: Growth inhibition test (MTT) for cytotoxic properties; type: cell-based, mouse; conditions: Table 1b
Summary of the method: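 Cells in RPMI 1640 with 10% FCS pre-cultured 1 day at 37° C, then exposed to test substances in DMSO; growth checked after day 3 and day 6. Read-out by MTT, 5 h incubation, isopropanol solubilization, extinction at 540 nm.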

SW-480 [2] = experiment: Cleavage kinetics with cells (HPLC); conditions: Table 2a; 37° C.; * = cleavage product is N-[D-alanyl]-batracyline
Experimental: Cleavage Kinetics With Cells
(§2) 2.25 ml of PBS are incubated together with 225 μl of a cell suspension (30 mg/ml) and 25 μl of substrate stock solution (1 mg/ml in 3% dimethyl sulphoxide in PBS) at 37° C. After 1 hour and 24 hours, samples of in each case 1 ml are taken, mixed with 1 ml of ethanol and left to stand at 4° C. for 20 minutes. After centrifugation (5 minutes at 3500 rpm), 100 μl of supernatant are taken for the HPLC analysis.

[3] = Acute toxicity, single administration; type: in vivo, nu/nu naked mice; conditions: for acute toxicity detected: dose of 400 mg/kg; for acute toxicity detected / individual dose of the substances which can be tolerated: single administration; for Individual dose tolerated in mg/kg of mouse, i.v.: aqueous solution; for Individual dose tolerated in mg/kg of mouse, i.p.: single administration i.p., solution in dimethyl sulphoxide
Experimental: Determination of the Acute Toxicity of Glycoconjugates of Batracyline (Single Administration)
The acute toxicity of the batracyline derivatives was determined on nu/nu naked mice.
The substances administered i.v., as aqueous solutions, and the substances administered i.p., as solutions in dimethyl sulphoxide, were injected once in concentrations of up to 400 mg of substance per kg of mouse.
The individual dose tolerated was calculated from the decrease in the weight of the animals up to 21 days after administration and from the number of animals surviving.

hepatoma [4] = experiment: Cleavage kinetics with cells (HPLC); conditions: Table 2a; 37° C.; * = cleavage product is N-[D-alanyl]-batracyline
Experimental: Cleavage Kinetics With Cells
as §2

hepatoma [5] = tested on: hepatoma
Experimental: Cleavage Kinetics With Cells
as §2

SW-480 [6] = tested on: SW-480
Experimental: Cleavage Kinetics With Cells
as §2

[7] = Cleavage kinetics with human blood (HPLC); type: in vitro ADME; conditions: 37° C.
Excerpt: In Vitro Investigation of the Cleavability of the Glycoconjugates
Cleavage Kinetics With Human Blood

B16F10 tumour = experiment: In vivo test, survival of mice with transplanted B16F10 tumour; parameters: species or system mouse; conditions: treated daily
Experimental: Mice are inoculated with 5×10^6 B16F10 tumour cells on day 0. The animals in which tumour cells are transplanted develop solid peritoneal tumours and are then treated daily with test substances or with the vehicle control. In the control group, 50% of the animals usually die between day 14 and 20. The test substances are administered in buffer or an organic solvent system comprising 20% methanol and 20% dimethyl sulphoxide in 0.7% sodium chloride solution.
The therapeutic result arises from the prolonging of the survival time of the treated animals. […] A therapeutic index can be estimated from the tolerance and prolonging of the survival time.

[8] = Table 1a, glycoconjugates of batracyline
[9] = Table 2a, * = cleavage product is N-[D-alanyl]-batracyline

Compound	IC50 (HT 29; [8])	IC50 (SW 480; [8])	% cleavage in SW-480 1 hour (SW-480 [2])	% cleavage in SW-480 24 hours (SW-480 [2])	individual dose of the substances which can be tolerated [3]	Individual dose tolerated in mg/kg of mouse, i.v. ([3]; single administration i.v.)	% cleavage in hepatoma 1 hour (hepatoma [4])	% cleavage in hepatoma 24 hours (hepatoma [4])	% cleavage in hepatoma 1 hour (hepatoma [5])	% cleavage in hepatoma 24 hours (hepatoma [5])	% cleavage in SW-480 1 hour (SW-480 [6])	% cleavage in SW-480 24 hours (SW-480 [6])	% cleavage in human blood 1 hour [7, 9]	% cleavage in human blood 24 hours [7, 9]	Individual dose tolerated in mg/kg of mouse, i.p. [3]	other results
COC1C(O)C(C)OC(Oc2ccc(NC(=S)NC(CCCCN)C(=O)NC3C=CC(C)C4CN(c5cc6c(cc5F)c(=O)c(C(=O)O)c5scc(C)n56)CC34)cc2)C1O.Cl (mixture of isomers) [Example 14.4, N-{N^α -[O-(3-O-Methyl-β-L-fucopyranosyl)-4-hydroxy-phenylamino-thiocarbonyl]-D-lysyl}-quinolone-c, hydrochloride]																IC50 (HT 29; Table 1b): 1 µM; IC50 (SW 480; Table 1b): 1.5 µM; IC50 [μg/ml] CSF-induced proliferation of bone marrow parent cells of the mouse [1]: 3.6 µg/mL; IC50 (B 16 F 10): 0.4 µM
CC(NC(=O)C(CCCCNC(=S)Nc1ccc(OC2OC(C)C(O)C(OCC(=O)[O-])C2O)cc1)NC(=S)Nc1ccc(OC2OC(C)C(O)C(OCC(=O)[O-])C2O)cc1)C(=O)Nc1ccc2nc3n(c(=O)c2c1)Cc1ccccc1-3.[Na+].[Na+] [Example 6.12, N-{N^α,N^ε -Bis-[O-(3-O-carboxymethyl-β-L-fucosyl)-4-hydroxy-phenylamino-thiocarbonyl]-lysyl-D-alanyl}-batracyline, di-sodium salt]	50 µM	35 µM	0%	0%	more than 200 mg of substance per kg of mouse	> 400 mg/kg of mouse	0%	0%								acute toxicity detected [3]: no acute toxicity
CC(NC(=O)C(CO)NC(=S)Nc1ccc(OC2OC(C)C(O)C(O)C2O)cc1)C(=O)Nc1ccc2c(c1)Cn1c-2nc2ccccc2c1=O [Example 7.3, N-{N-[O-(β-L-Fucosyl)-4-hydroxy-phenylamino-thiocarbonyl]-seryl-D-alanyl]-batracyline]		50 µM							0%	0%	0%	0%	0%	0%		
CO[C@H]1[C@H](O)[C@@H](Oc2ccc(NC(=S)NCCCC[C@H](NC(=S)Nc3ccc(O[C@H]4O[C@@H](C)[C@@H](O)[C@@H](OC)[C@@H]4O)cc3)C(=O)NC3C=CCC4CN(c5c(F)cc6c(=O)c(C(=O)O)cn(C7CC7)c6c5Cl)CC43)cc2)O[C@@H](C)[C@H]1O (stereo partly drawn) [Example 11.6, N-{N^α,N^ε -Bis-[O-(3-O-methyl-β-L-fucosyl)-4-hydroxy-phenylamino-thiocarbonyl]-lysyl}-quinolone-a]									0%	12%	0%	8%				IC50 (HT 29; Table 1b): 9 µM; IC50 (SW 480; Table 1b): 8 µM; % cleavage in human blood 1 hour ([7]; Table 2b): 0%; % cleavage in human blood 24 hours ([7]; Table 2b): 11%; IC50 (B 16 F 10): 5 µM
CO[C@H]1[C@H](O)[C@@H](Oc2ccc(NC(=S)NCCCC[C@@H](NC(=S)Nc3ccc(O[C@H]4O[C@@H](C)[C@@H](O)[C@@H](OC)[C@@H]4O)cc3)C(=O)NC3C=CCC4CN(c5c(F)cc6c(=O)c(C(=O)[O-])cn(C7CC7)c6c5Cl)CC43)cc2)O[C@@H](C)[C@H]1O.[Na+] (stereo partly drawn) [Example 11.12, N-{N^α,N^ε -Bis-[O-(3-O-methyl-β-L-fucosyl)-4-hydroxy-phenylamino-thiocarbonyl]-D-lysyl}-quinolone-a, sodium salt]																% survivors Day 0 (B16F10 tumour; 1 mg/kg): 100%; % survivors Day 20 (B16F10 tumour; 1 mg/kg): 90%; % survivors Day 25 (B16F10 tumour; 1 mg/kg): 60%; % survivors Day 30 (B16F10 tumour; 1 mg/kg): 30%; % survivors Day 35 (B16F10 tumour; 1 mg/kg): 30%; % survivors Day 0 (B16F10 tumour; 100 mg/kg): 100%; % survivors Day 20 (B16F10 tumour; 100 mg/kg): 100%; % survivors Day 25 (B16F10 tumour; 100 mg/kg): 100%; % survivors Day 30 (B16F10 tumour; 100 mg/kg): 90%; % survivors Day 35 (B16F10 tumour; 100 mg/kg): 90%
N-{N^α -[O-(3-O-Carboxymethyl-β-L-fucosyl)-4-hydroxyphenylaminothiocarbonyl] -N^α -[acetyl]-lysyl-D-alanyl batracyline [Example 5.9]	70 µM	70 µM							0%	0%	0%	0%	0%	0%		
N-{N^α -[O-(4-O-Methyl-β-L-fucosyl)-4-hydroxy-phenylamino-thiocarbonyl]-lysy l-D-alanyl}-batracyline [Example 4.4]	25 µM	30 µM							0%	0%	0%	0%	0%	0%		
N-{N^α,N^ε -Bis-[O-(3-O-methyl-β-L-fucosyl)-4-hydroxy-phenylamino-thiocarbonyl]- lysyl-D-alanyl}-batracyline [Example 6.2]	50 µM	40 µM	0%	0%	more than 200 mg of substance per kg of mouse		0%	0%							> 400 mg/kg of mouse	acute toxicity detected [3]: no acute toxicity
N-{N^ε -[O-(3-O-Carboxymethyl-β-L-fucosyl)-4-hydroxy-phenylamino-thiocarbony l]-lysyl-D-alanyl}-batracyline, sodium salt [Example 3.9]	55 µM	40 µM	28%	100%	more than 200 mg of substance per kg of mouse	200 mg/kg of mouse	32%	100%					0%	54%	200 mg/kg of mouse	
N-{N^ε -[O-(3-O-Methyl-β-L-fucosyl)-4-hydroxy-phenylamino-thiocarbonyl]-lysy l-D-alanyl}-batracyline, trifluoroacetate [Example 3.4]	65 µM	100 µM	74%			< 100 mg/kg of mouse	98%								200 mg/kg of mouse	animals died ([3]; single administration i.v.): 2
